The values that follow come from PMC10584170, “Machine learning-based phenotypic imaging to characterise the targetable biology of Plasmodium falciparum male gametocytes for the development of transmission-blocking antimalarials” (PLOS Pathogens, 2023).

Usually inhibition stands for the drop in the measured response relative to a control, in per cent. For orientation: IC50 means the concentration needed to halve the response being measured.

Like-named read-outs stand apart in the source and are kept apart here.

Data set [1] has as its system P. falciparum male gametocytes. The data set can be described thus: P. falciparum Dual Gamete Formation Assay (PfDGFA), male readout (exflagellation). Type of data set: cell-based, Plasmodium falciparum NF54. The following applies: for Selectivity Ratio M: HepG2 Tox50 versus male IC50; for inhibition at 2 µM / IC50: Plasmodium falciparum; for inhibition at 2 µM: 24h preincubation with gametocytes; for IC50: PfDGFA, 24 h incubation with gametocytes before induction, exflagellation readout, read-out: Male IC50; for HitlevelM: number of replicates with >50% inhibition in the male readout. The essentials: (§1)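 NF54 mature gametocytes (d14), cpd 24 h 37°C hypoxic gas; trigger: xanthurenic acid ookinete medium + Cy3 anti-Pfs25, 4°C 4 min → 28°C 4 min. Male: exflagellation centres, brightfield x6. Female: Pfs25+ gametes, fluorescence, +24 h 28°C dark.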

The subject of data set [2] is P. falciparum female gametocytes. As to the kind of experiment: P. falciparum Dual Gamete Formation Assay (PfDGFA), female readout (Pfs25-positive female gametes). Type of data set: cell-based, Plasmodium falciparum NF54. The following applies: for Selectivity ratio F: HepG2 Tox50 versus female IC50; for inhibition at 2 µM / IC50: Plasmodium falciparum; for inhibition at 2 µM: 24h preincubation with gametocytes; for IC50: PfDGFA, 24 h incubation with gametocytes before induction, female gamete readout, read-out: Female IC50; for HitlevelF: number of replicates with >50% inhibition in the female readout. The essentials: as §1

Another data set has as its system HepG2 cells. The data set can be described thus: HepG2 cytotoxicity counter-screen. The following applies: cytotoxic activity against HepG2 cells.
Setting [3] is: 2µM, average of replicates, read-out: Average inhibition male (%).
Setting [4] is: 2µM, replicate R1, read-out: % inhibition male (individual replicates) R1.
[5] abbreviates: 2µM, replicate R2, read-out: % inhibition male (individual replicates) R2.
Where [6] appears, read: 2µM, replicate R3, read-out: % inhibition male (individual replicates) R3.
[7] abbreviates: 2µM, replicate R4, read-out: % inhibition male (individual replicates) R4.
The mark [8] stands for this setting: 2µM, average of replicates, read-out: Average inhibition female (%).
Where [9] appears, read: 2µM, replicate R1, read-out: % inhibition female (individual replicates) R1.
[10] abbreviates: 2µM, replicate R2, read-out: % inhibition female (individual replicates) R2.
Where [11] appears, read: 2µM, replicate R3, read-out: % inhibition female (individual replicates) R3.
Setting [12] is: 2µM, replicate R4, read-out: % inhibition female (individual replicates) R4.
[13] abbreviates: PfDGFA at 2µM, average of replicates, read-out: Average inhibition male (%).
Where [14] appears, read: PfDGFA at 2µM, replicate R1, read-out: % inhibition male (individual replicates) R1.
Where [15] appears, read: PfDGFA at 2µM, replicate R2, read-out: % inhibition male (individual replicates) R2.
The mark [16] stands for this setting: PfDGFA at 2µM, replicate R3, read-out: % inhibition male (individual replicates) R3.
Where [17] appears, read: PfDGFA at 2µM, replicate R4, read-out: % inhibition male (individual replicates) R4.
The mark [18] stands for this setting: PfDGFA at 2µM, average of replicates, read-out: Average inhibition female (%).
Setting [19] is: PfDGFA at 2µM, replicate R1, read-out: % inhibition female (individual replicates) R1.
Setting [20] is: PfDGFA at 2µM, replicate R2, read-out: % inhibition female (individual replicates) R2.
[21] abbreviates: PfDGFA at 2µM, replicate R3, read-out: % inhibition female (individual replicates) R3.
Where [22] appears, read: PfDGFA at 2µM, replicate R4, read-out: % inhibition female (individual replicates) R4.

In the case of `CN1CCN(c2ccc(Nc3ncc(C#N)c(Nc4ccccc4C(N)=O)n3)cc2)CC1.Cl` [TCMDC-134116], the “Selectivity Ratio M” value in data set [1] turned out to be 137.11. Also, the inhibition at 2 µM in data set [1] (setting [3]) is 100%; in data set [1] (setting [4]), 98.7%; in data set [1] (setting [5]), 101%; in data set [1] (setting [6]), 97.3%; in data set [1] (setting [7]) it was 104%; in data set [2] (setting [8]), -1.7%. Further, the inhibition at 2 µM in data set [2] (setting [9]) is 7.5%; in data set [2] (setting [10]) it was 3%; in data set [2] (setting [11]), -11.3%; in data set [2] (setting [12]), -6.1%. Besides, the IC50 in data set [1] came to 30 nM; in data set [2], 9170 nM. Further, in data set [2], the “Selectivity ratio F” value turned out to be 0.4. The Tox50 with HepG2 cells amounted to 3.71 µM.

Consider `COc1ccc(Nc2ncc(C#N)c(Nc3ccccc3C(N)=O)n2)cc1N1CCN(C)CC1.Cl` [TCMDC-134117], for which the “Selectivity Ratio M” value in data set [1] was 100.74. In addition, the inhibition at 2 µM was 97.4% in data set [1] (setting [3]); 98.2% in data set [1] (setting [4]); 100% in data set [1] (setting [5]); 93.5% in data set [1] (setting [6]); 98% in data set [1] (setting [7]); -4.3% in data set [2] (setting [8]). In addition, the inhibition at 2 µM was -4.1% in data set [2] (setting [9]), -6.5% in data set [2] (setting [10]), -13.1% in data set [2] (setting [11]) and 6.5% in data set [2] (setting [12]). For the same compound, the values for the IC50 in data set [1] and in data set [2] were 100 nM and greater than 10000 nM, respectively. For the same compound, the “Selectivity ratio F” value in data set [2] is on record as 0.96. Moreover, in the data set on HepG2 cells, the Tox50 stood at 9.58 µM.

As for `CN1CCC(NCc2ccc(-c3cnc(NCc4ccccc4)nc3)cc2)CC1.O=C(O)C(F)(F)F` [TCMDC-134120], the “Selectivity Ratio M” value in data set [1] stood at 11.62. The inhibition at 2 µM in data set [1] (setting [13]) worked out at 86.5%; in data set [1] (setting [14]) it was 83.5%; in data set [1] (setting [15]), 87.5%; in data set [1] (setting [16]), 86.1%; in data set [1] (setting [17]) it was 88.9%; in data set [2] (setting [18]), 24.9%. The inhibition at 2 µM in data set [2] (setting [19]) is 24.7%; in data set [2] (setting [20]), 16.8%; in data set [2] (setting [21]) it was -0.09%; in data set [2] (setting [22]) it was 58.4%. The IC50 in data set [1] turned out to be 960 nM; in data set [2], 6570 nM. The compound also had a HitlevelM in data set [1] (2µM) of 4. In data set [2], the “Selectivity ratio F” value is reported as 1.69. Also, in data set [2] (2µM), the HitlevelF amounted to 1. The same compound yielded a Tox50 in the data set on HepG2 cells of 11.1 µM.

For the compound `CNC(=O)c1ccccc1Nc1nc(Nc2ccc(N3CCN(C)CC3)nc2)ncc1C.Cl` [TCMDC-134123], the “Selectivity Ratio M” value in data set [1] turned out to be 14.02. The inhibition at 2 µM in data set [1] (setting [3]) is 96.1%; in data set [1] (setting [4]), 93.9%; in data set [1] (setting [5]) it was 95.8%; in data set [1] (setting [7]), 98.7%; in data set [2] (setting [8]) it was 0.025%; in data set [2] (setting [9]), -2.2%. Moreover, the inhibition at 2 µM in data set [2] (setting [10]) was -9.9%; in data set [2] (setting [11]) it was 9.7%; in data set [2] (setting [12]), 2.5%. Further, the IC50 in data set [1] is 250 nM; in data set [2], greater than 10000 nM. Further, the “Selectivity ratio F” value in data set [2] was 0.34. The same compound returned a Tox50 in the data set with HepG2 cells of 3.44 µM.

Take `CNC(=O)c1ccccc1Nc1nc(Nc2ccc(N3CCOCC3)cc2)ncc1Cl.Cl` [TCMDC-134144]: the “Selectivity Ratio M” value in data set [1] came to 4.53. Besides, the inhibition at 2 µM in data set [1] (setting [13]) turned out to be 88.6%; in data set [1] (setting [14]) it was 93.6%; in data set [1] (setting [15]), 91.9%; in data set [1] (setting [16]), 82.6%; in data set [1] (setting [17]) it was 86.2%; in data set [2] (setting [18]) it was 8.6%. Besides, the inhibition at 2 µM came to 12.4% in data set [2] (setting [19]), 10.5% in data set [2] (setting [20]), 10.7% in data set [2] (setting [21]) and 0.76% in data set [2] (setting [22]). Besides, the IC50 in data set [1] was 180 nM; in data set [2], greater than 10000 nM. In data set [1] (2µM), this compound had a HitlevelM of 4. For the same compound, the “Selectivity ratio F” value in data set [2] is reported as 0.08. The compound also had a HitlevelF in data set [2] (2µM) of 0. This compound also registered a Tox50 in the data set on HepG2 cells of 0.82 µM.

For `COc1ccc(Nc2ncc(OC)c(Nc3ccccc3C(N)=O)n2)cc1N1CCN(C)CC1.O=CO` [TCMDC-134149], the “Selectivity Ratio M” value in data set [1] was determined as 28.52. Moreover, the inhibition at 2 µM in data set [1] (setting [3]) was found to be 94.7%; in data set [1] (setting [4]) it was 95.1%; in data set [1] (setting [5]), 101%; in data set [1] (setting [6]), 85.5%; in data set [1] (setting [7]), 97.6%; in data set [2] (setting [8]) it was 13.9%. The inhibition at 2 µM worked out at 17.6% in data set [2] (setting [9]), 16.3% in data set [2] (setting [10]), 5.9% in data set [2] (setting [11]) and 15.7% in data set [2] (setting [12]). The IC50 in data set [1] was 180 nM; in data set [2] it was 7910 nM. Besides, the “Selectivity ratio F” value in data set [2] is on record as 0.66. Besides, in the data set on HepG2 cells, the Tox50 worked out at 5.24 µM.

`COc1ccc(Nc2ncc(Cl)c(Nc3cccnc3C(N)=O)n2)cc1N1CCN(C)CC1.Cl` [TCMDC-134163]: in data set [1], the “Selectivity Ratio M” value is on record as 7.51. Further, the inhibition at 2 µM is 79.9% in data set [1] (setting [13]); 77.1% in data set [1] (setting [14]); 88.9% in data set [1] (setting [15]); 73.4% in data set [1] (setting [16]); 80.2% in data set [1] (setting [17]); -4.7% in data set [2] (setting [18]). In addition, the inhibition at 2 µM in data set [2] (setting [19]) was 1.7%; in data set [2] (setting [20]), -23.4%; in data set [2] (setting [21]), -4.2%; in data set [2] (setting [22]) it was 7%. In addition, the results for the IC50 in data set [1] and in data set [2] were 400 nM and greater than 10000 nM, respectively. Besides, the HitlevelM in data set [1] (2µM) is listed as 4. Also, the “Selectivity ratio F” value in data set [2] came to 0.3. The HitlevelF in data set [2] (2µM) worked out at 0. The compound further displayed a Tox50 in the data set on HepG2 cells of 2.98 µM.

With `CN1CCN(c2ccc(Nc3ncc(Cl)c(Nc4cccnc4C(N)=O)n3)cc2)CC1.Cl` [TCMDC-134164], the “Selectivity Ratio M” value in data set [1] was 13.8. The inhibition at 2 µM was 93.6% in data set [1] (setting [3]); 95.4% in data set [1] (setting [4]); 93.6% in data set [1] (setting [5]); 90.2% in data set [1] (setting [6]); 95.2% in data set [1] (setting [7]); -2.7% in data set [2] (setting [8]). Also, the inhibition at 2 µM was -3.8% in data set [2] (setting [9]), 5.1% in data set [2] (setting [10]), -16.9% in data set [2] (setting [11]) and 4.9% in data set [2] (setting [12]). The IC50 in data set [1] turned out to be 460 nM; in data set [2], 5470 nM. Moreover, in data set [2], the “Selectivity ratio F” value came to 1.15. The compound further yielded a Tox50 with HepG2 cells of 6.29 µM.

On to `Cc1ccc(C(C(=O)Nc2ccc(N3CCNCC3)c(Cl)c2)c2ccccc2)cc1` (centres unmarked) [TCMDC-134292], for which the “Selectivity Ratio M” value in data set [1] was determined as 27.18. Besides, the inhibition at 2 µM turned out to be 93.6% in data set [1] (setting [3]); 96.8% in data set [1] (setting [4]); 85.1% in data set [1] (setting [5]); 98.4% in data set [1] (setting [6]); 94.1% in data set [1] (setting [7]); 61.9% in data set [2] (setting [8]). Also, the inhibition at 2 µM in data set [2] (setting [9]) was 54.2%; in data set [2] (setting [10]), 48.2%; in data set [2] (setting [11]), 79.2%; in data set [2] (setting [12]) it was 66%. The IC50 in data set [1] is 420 nM; in data set [2], greater than 10000 nM. Also, the “Selectivity ratio F” value in data set [2] is 1.13. The Tox50 in the data set on HepG2 cells is reported as 11.32 µM.
